Measured values taken from PMC12196476, “New Nitrogen-, Oxygen-, and Sulfur-Containing Heterocyclic Compounds as Anti-Colon Cancer Agents: Synthesis, Multitargeted Evaluations, Molecular Docking Simulations and ADMET Predictions” (Pharmaceuticals, 2025).

Legend:
PDK-1 = PDK-1 (Homo sapiens, UniProt Q15118); experiment: In vitro PDK-1 inhibition assay (Kinase-Glo luminescent kinase kit); type: biochemical; conditions: 100 µg/mL, three replicates; for inhibition at 100 µg/mL: read-out: Mean Inhibition Percent ± SD, PDK-1
Method: Principally, the PDK-1 inhibitory activities were evaluated using the non-radioactive Kinase-Glo™ Luminescent Kinase Kit (Promega Corporation, Madison, WI, USA) following the instructions of the manufacturer.
S3.2.2. In vitro PDK-1 inhibition assay.
The PDK-1 inhibitory activities of the test compounds were evaluated using the non-radioactive
Kinase-Glo™ Luminescent Kinase kit (Promega Corporation, Madison, WI, USA), following the
manufacturer’s protocol. Briefly, 5 μL of assay buffer—containing 10 × 250 mM Tris-HCl, 50 mM
MgCl2, 5 mM ethyleneglycol-bis(β-aminoethylether)-N,N,N′,N′-tetraacetic acid (EGTA), 10 mM
ethylenedi- aminetetraacetic acid (EDTA), and 10 mM dithiothreitol (DTT)—was added to each
well of a 96-well plate, along with 25 μL of distilled water. Subsequently, 5 μL of each test
compound at various concentrations (50, 100, 200 and 300 μg/mL in 1% DMSO) was added to the
respective wells, except for the two control wells, which received 5 μL of either PBS buffer or 1%
DMSO. Then, 5 μL of pyruvate dehydrogenase E1 (PDH E1) protein (10 μM) and 5 μL of ATP
(10 μM) were added to each well. To initiate phosphorylation, 5 μL of PDK-1 (20 μM) in protein
buffer (1 mM MgCl2, 2000 mM KCl, 40 mM K3PO4) was added to all the wells except the control
wells, which received 5 μL of protein buffer instead. The plate was then mixed thoroughly and
incubated at 37 °C for 30 minutes. After incubation, 50 μL of kinase-Glo® reagent was added to each
well, followed by a 10-minute incubation at room temperature with gentle shaking to stabilize the
luminescent signal. Luminescence was then measured using a microplate reader.
The IC50 value—defined as the concentration of a compound required to reduce luminescence by
50%, compared to untreated control wells—was determined for each compound from the
corresponding dose–response curve generated by plotting PDK-1 inhibition (%) versus compound
concentration. Sodium dichloroacetate (SDA, 1000 μM) was used as a reference PDK-1inhibitor. […]

[1] = system: HCT-116 colon carcinoma cells; experiment: Cell viability, LDH release assay, HCT-116; conditions: for viability at 100 µg/mL / IC50: Homo sapiens, HCT-116, 48 h; for viability at 100 µg/mL: read-out: Mean % of viable cells ± SD, HCT-116, 100 µg/mL, 48 h, LDH release assay; for IC50: read-out: Mean IC50 Values in µM ± SD, HCT-116 cells
Method: (§1) The studied compounds were also screened for their cytotoxic effects on HCT-116 and LoVo colon carcinoma cells, as well as normal HUVECs, using the standard LDH assay at a concentration of 100 µg/mL.
(§2) The antiproliferative activities of the newly synthesized compounds 3a–e, 8, 9a–c, 13, 14, 17, 18a–h, 20, 22, 23 and 25 were examined on human colon HCT-116 and LoVo cell lines as well as HUVEC (American Type Culture Collection, Manassas, VA, USA). […]
(§3) S3.2.4. Cell culture and viability assay.
(§4) The cytotoxic activities of the newly synthesized compounds (3a-e, 8, 9a-c, 13, 14, 17, 18a-h, 20, 22,
(§5) 23, and 25) were examined on human colon cancer cell lines HCT-116 and Lovo (American Type
(§6) Culture Collection, USA). Various concentrations (50, 100, 200, and 400 μg/mL) of test compounds
(§7) were prepared in Dulbecco’s Modified Eagles Medium (PAN-Biotech, Barcelona, Spain),

[2] = system: LoVo colon carcinoma cells; experiment: Cell viability, LDH release assay, LoVo; conditions: 48 h; for viability at 100 µg/mL / IC50: Homo sapiens, LoVo; for viability at 100 µg/mL: read-out: Mean % of viable cells ± SD, LoVo, 100 µg/mL, 48 h, LDH release assay; for IC50: read-out: Mean IC50 Values in µM ± SD, LoVo cells
Method: as §1, §2, §3, §4, §5, §6, §7

[3] = DPPH radical scavenging assay; conditions: three independent experiments; read-out: Mean IC50 (mM) for initial DPPH radicals ± SD
Method: The antioxidant activities of the studied compounds were assessed using the 1,1-diphenyl-2-picrylhydrazyl (DPPH) radical scavenging method as detailed by Bersuder et al.. The results were expressed as IC50 (mM)—the concentration of the test compound required to neutralize 50% of DPPH radicals.
The antioxidant efficiencies of target compounds were determined using the 1,1-diphenyl-2-picrylhydrazyl (DPPH) radical scavenging method as detailed by Bersuder et al.. […]
S3.2. Evaluation of Biological Activities.
S3.2.1. In vitro DPPH radical scavenging assay.
The antioxidant efficiencies of compounds—3a−e, 8, 9a−c, 13, 14, 17, 18a−h, 20, 22, 23, and 25—were
determined using the 1,1-diphenyl-2-picrylhydrazyl (DPPH) radical scavenging method as
detailed by Bersuder et al.. Fundamentally, the purple color of the stabilized DPPH radical
fades in the presence of an antioxidant, thus, the change of absorbance can be followed
spectrophotometrically at 519 nm. In the assay, equal volumes (0.5 mL) of DPPH ethanolic solution
and each compound (0-2 mg/mL in DMSO) or butylated hydroxytoluene (BHT) as the reference
were mixed well by shaking. The negative control consisted of the same amount of DMSO and
DPPH solution. After, incubation all mixtures at room temperature in the dark for one hour, the
absorbance of the residual DPPH radicals was measured at 519 nm using the UV‐vis
spectrophotometer. The DPPH radical scavenging activity of each compound (%) was calculated
Scavenging activity = (1 − Acompound/AControl) * 100, where Acompound and Acontrol the absorbance values
of each tested compound (or BHT) and the negative control, respectively. The half maximal
inhibitory concentration (IC50) for each compound in mg/mL was deduced by graphing the dose-
response curve relating the scavenging activity (%) to the compound concentration. Data points
represent the mean ± standard deviation (SD) of three independent determinations.

[4] = Cell viability, LDH release assay, normal HUVECs; conditions: human, normal HUVECs, Mean % of viable cells ± SD, HUVEC
Method: as §1, §2
(§8) medium served used as negative and positive controls, respectively. Percentages of viable cells […]
(§9) were calculated based on relative optical density (OD) values (at 550 nm) for compound-treated […]
(§10) wells (final concentration of 100 μg/mL), compared to the negative control, and expressed as mean value (%) ± SD from two replicates. Graphing dose-response curves representing the compound […]
(§11) concentration versus the percentages of viable cells was also conducted to deduce the half - […]
(§12) Additionally, the safety profiles of the studied compounds were assessed against normal cells […]
(§13) (HUVECs) at final concentration of 100 μg/mL . HUVECs were grown in Dulbecco’s Modified Eagle’s Medium supplemented with 10% FBS, 2 mM glutamine (Sigma Aldrich), 100 units/mL penicillin and […] streptomycin (Life Technologies; Paisley, UK). […]

[5] = molecular target: recombinant human LDHA protein (Homo sapiens, UniProt P00338); experiment: In vitro LDHA inhibitory assay (NADH consumption); type: biochemical; conditions: 100 µg/mL, three replicates; for inhibition at 100 µg/mL: read-out: Mean Inhibition Percent ± SD, LDHA
Text: The LDHA inhibitory efficiencies were investigated on Spectramax M2 spectrofluorometer via measuring the amounts of the consumed NADH^40 using an NAD^+/NADH quantification kit. […]
S3.2.3. In vitro LDHA inhibitory assay.
The LDHA inhibitory activity of the test compounds was investigated using Spectramax M2
spectrofluorometer by measuring the amounts of the consumed NADH [42] employing
NAD+/NADH quantification kit. Briefly, the assay medium containing various concentrations of
each test compound (50, 100, 200 and 300 μg/mL) was incubated in assay medium composed of 20
mM of HEPES-K+ buffer (pH 7.2), 20 μM of NADH, 2 mM of pyruvate and 10 ng of purified
recombinant human LDHA protein for 10 min utes. The activity of LDHA would result in reduction
of pyruvate into lactate with concomitant oxidation of NADH to NAD +. Since NADH (reduced
LDHA, could be inversely quantified by monitoring the change in the intensity of the fluorescence
at 340 nm over a 10-minute period. The rate of the fluorescence change (slope) in treated samples
was compared to that obtained from negative control experiment (100 % enzymatic activity) to
determine the percentage of inhibition. The IC50 value—defined as the compound concentration
required to reduce the luminescence by 50%, compared to untreated control wells—was
determined for each compound from the corresponding dose–response curve generated by
plotting LDHA inhibition (%) against compound concentration.
was used as the reference LDHA inhibitor. […]

HUVECs = experiment: Cell viability, LDH release assay, normal HUVECs; conditions: 100 µg/mL, 48 h
Method: as §1, §2, §8, §9, §10, §11, §12, §13

Chain of PDK-1 (Q15118 29-436): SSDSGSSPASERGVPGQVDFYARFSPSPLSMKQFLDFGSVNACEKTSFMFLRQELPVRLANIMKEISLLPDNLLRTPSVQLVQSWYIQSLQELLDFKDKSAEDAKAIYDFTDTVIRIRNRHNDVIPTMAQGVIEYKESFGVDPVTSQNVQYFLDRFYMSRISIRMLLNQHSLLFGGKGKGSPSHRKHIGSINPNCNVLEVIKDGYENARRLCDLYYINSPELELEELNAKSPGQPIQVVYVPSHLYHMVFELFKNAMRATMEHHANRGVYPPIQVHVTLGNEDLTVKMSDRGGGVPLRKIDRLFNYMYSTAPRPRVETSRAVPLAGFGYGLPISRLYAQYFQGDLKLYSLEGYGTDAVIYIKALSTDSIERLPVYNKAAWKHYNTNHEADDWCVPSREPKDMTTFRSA

Molecule `COc1cc(C=C(NC(=O)c2ccccc2)c2n[nH]c(=S)o2)ccc1O` [Compound 22, N-(2-(4-Hydroxy-3-methoxyphenyl)-1-(5-thioxo-4,5-dihydro-1,3,4-oxa-diazol-2-yl)vinyl)benzamide] has an inhibition at 100 µg/mL (PDK-1) of 39.5 ± 2.12%, a viability at 100 µg/mL [1] of 40.5 ± 3.54% and an IC50 [1] of 511 ± 5.61 µM. For the same molecule, the viability at 100 µg/mL [2] was 29.5 ± 2.12%, the IC50 [2] was 437.3 ± 1.51 µM and the IC50 [3] was 0.65 ± 0.076 mM. The viability at 48 h, 100 µg/mL [4] was 79 ± 2% and the inhibition at 100 µg/mL [5] was 27.2 ± 2.48%.
`COc1cc(/C=C(\NC(=O)c2ccccc2)C(=O)NNC(=S)Nc2ccccc2)ccc1O` [Compound 23, N-(1-(4-Hydroxy-3-methoxyphenyl)-3-oxo-3-(2-(phenylcarbamothionyl)hydrazinyl)prop-1-en-2-yl)benzamide] showed an inhibition at 100 µg/mL (PDK-1) of 11 ± 1.41%, a viability at 100 µg/mL [1] of 23 ± 2.83% and an IC50 [1] of 215.4 ± 1.25 µM. It also gave a viability at 100 µg/mL [2] of 57.5 ± 2.12%, an IC50 [2] of 444 ± 9.17 µM and an IC50 [3] of 1.21 ± 0.03 mM. For the same molecule, the viability at 48 h, 100 µg/mL [4] was 80 ± 1.92% and the inhibition at 100 µg/mL [5] was 34.4 ± 3.32%.
In the case of “N-(3-(2-(1-(2-((2,4-Dimethylphenyl)amino)-2-oxoethyl)-2-oxoindolin-3-ylidene)hydrazinyl)-1-(4-hydroxy-3-methoxyphenyl)-3-oxoprop-1-en-2-yl)benzamide [Compound 25]”, the “Mean Inhibition Percent ± SD, PDK-1” value (PDK-1) is reported as 13.30±1.84%, the “Mean % of viable cells ± SD, HCT-116” value ([1]; 100 µg/mL, 48 h, LDH release assay) is reported as 79.00 ± 2.83% and the “Mean % of viable cells ± SD, LoVo” value ([2]; 100 µg/mL, LDH release assay) is reported as 71.50 ± 3.54%. For the same molecule, the IC50 [3] was 0.162 ± 0.023 mM, the “Mean % of viable cells ± SD, HUVEC” value (HUVECs) was 87.94 ± 2.33% and the “Mean Inhibition Percent ± SD, LDHA” value [5] was 40.50 ± 3.54%.
